US20110251135A1, “INHIBITORS OF PERITONEAL SEEDING OF CANCER CELLS” (University of Utah Research Foundation, priority 2008, published 2011)

Legend:
[1] = tested on: IκB phosphorylation and TNFα-induced NF-κB activation; conditions: Pierce et al., J Biol Chem 272:21096-103, 1997; cited from earlier work
[2] = tested on: transiently suspended Caco-2 cells; assay: Apoptosis of transiently suspended cells during readhesion (annexin V assay); assay type: cell-based, human; conditions: Caco-2 transiently suspended, treated and allowed to readhere
Experimental: Single cell suspensions were plated at 100,000 cells per well in 24-well plates in media containing DMSO, BAY 11-7082, BAY 11-7085, or MG-132 for 8-24 hours in an incubator. Alternatively, DMSO, BAY 11-7082, BAY 11-7085, or MG-132 were added to cells that were confluent and adherent for several days. The nonadherent cells were aspirated off with the media and spun for 3 minutes at 2,000 rpm in 15 mL polypropylene tubes. The adherent cells were washed twice with PBS, dispersed in trypsin, and spun down for 3 minutes at 2,000 rpm in 15 mL polypropylene tubes. […] 400 μL of binding buffer was added to each tube and the cells were analyzed by flow cytometry immediately. The percent of apoptosis was determined as the percent of annexin V-positive, propidium iodide-negative cells of the total cells counted.
Since trypsin can activate protease-activated receptor-2 in colon cancer cell lines, which then results in increased cell proliferation, (Darmoul et al., “Initiation of human colon cancer cell proliferation by trypsin acting at protease-activated receptor-2,” Br J Cancer 85:772-9, 2001). NF-κB activation was determined in adherent and confluent DLD-1, HCT-116, Caco-2 and HT-29 cells that were removed from plastic dishes by trypsin or scraping.

293-COX-2 cells = assay: Apoptosis of 293-COX-2 cells with or without ponasterone induction of COX-2; assay type: cell-based; conditions: 8 hours of exposure
Experimental: The transiently suspended cells were lysed and allowed to bind to DNA oligonucleotides, containing the NF-κB consensus binding site, that were immobilized to 96-well plates. NF-κB protein bound to the oligonucleotides was detected by an antibody to the p65 subunit that only recognized p65 that is bound to DNA. The positive control was HeLa cells that were stimulated with TNFα. A control was performed using excess free NF-κB oligonucleotides (Competitor). […] NF-κB binding activity was determined by the TransAM assay as in FIG. 5A. […] The data shown represent typical results of three separate experiments. […] An immunoblot for COX-2 was performed.
DLD-1, HCT-116, and HT-29 colon cancer cell lines were obtained from the ATCC collection and were cultured in Dulbecco's Modification of Eagle's Medium (DMEM) supplemented with 10% fetal bovine serum, glutamine, penicillin, and streptomycin. […]
Single cell suspensions were plated at 100,000 cells per well in 24-well plates in media containing DMSO, BAY 11-7082, BAY 11-7085, or MG-132 for 8-24 hours in an incubator. […] 400 μL of binding buffer was added to each tube and the cells were analyzed by flow cytometry immediately. The percent of apoptosis was determined as the percent of annexin V-positive, propidium iodide-negative cells of the total cells counted. […]

c-IAP-1 = assay: Immunoblot of anti-apoptotic proteins in HT-29 cells; assay type: cell-based, human; conditions: transiently suspended or adherent HT-29; 20 μM for 8 hours
Experimental: The data points represent the means of triplicate experiments and the error bars the standard errors of the means. […] The percent of apoptotic cells was then determined by the annexin V assay. […] The results shown are typical of two separate experiments. […] Immunoblots were performed for c-IAP-2, TRAF-1, TRAF-2, and FLIP. All lanes contain equal total protein.
The cells were washed twice in ice cold PBS and then lysed in 4° C. lysis buffer (50 mM HEPES, 150 mM NaCl, 1.5 mM MgCl2, 1 mM EGTA, 100 mM NaF, 10 mM Na2PO4, 1 mM Na3VO4, 10% glycerol, 1% TRITON™ X-100, and 1 μg/mL each of aprotinin, leupeptin, chymostatin, pepstatin) and clarified at 12,000 rpm at 4° C. for 15 minutes. The lysates were normalized for total protein concentration. Aliquots of the lysates were then mixed 1:1 in sample buffer (125 mM Tris-HCl (pH 6.8), 20% glycerol, 4% sodium dodecyl sulfate, 2% β-mercaptoethanol, 10 μg/mL bromophenol blue) and boiled for 3 minutes. The samples were loaded onto SDS-PAGE gels (7.5 or 10% acrylamide). […]
For immunodetection, the blocked blots were probed with primary antibody for 2 hours at 4° C. on a rocker. […] Alkaline phosphatase was detected by a colorimetric reaction using a BCIP (5-bromo-4-chloro-3-indolyl phosphate)/NBT (nitroblue tetrazolium) kit (Zymed).

[3] = athymic mice; BAY 11-7085 5 mg/kg IP, 4 doses total
NF-κB in HT-29 cells = assay: NF-κB ELISA during readhesion; assay type: cell-based, human; conditions: colon and pancreatic cancer readhesion
Excerpt: Untreated adherent monolayers (Control) and Jurkat cells treated with TNFα (Jurkat Control) served as controls. The cells were collected and analyzed for NF-κB activation in an ELISA (see Methods). […] The floating and readherent cells were collected and lysed. Aliquots of the cell lysates were used to generate cleaved PARP immunoblots. All lanes contain equal total protein concentrations and the actin blot served as a loading control. The blots shown are typical of duplicate experiments. […] The floating cells were washed away and the adherent cells were then fixed and stained with crystal violet. The cells were lysed in deoxycholate and the intensity of the staining quantified by spectrophotometry. The results are normalized to the controls.
Nuclear lysates were generated, normalized for total protein concentration, and used to determine NF-κB activity in an ELISA kit (Panomics) per the manufacturer's instructions.

SMILES: CC(C)(C)c1ccc(S(=O)(=O)/C=C/C#N)cc1 [BAY 11-7085, (2E)-3-[4-(tertiarybutylphenyl)sulfonyl]-2-propenenitrile]
- IκB phosphorylation and TNFα-induced NF-κB activation [1]: inhibit IκB phosphorylation and TNFα-induced NF-κB activation
- BAY 11-7085-induced apoptosis during readhesion [2]: moderate increase
- apoptosis (293-COX-2 cells; ponasterone-induced 293-COX-2 cells (1 μg/mL, 48 hours)): marked increase in BAY 11-7085-induced apoptosis
- apoptosis (293-COX-2 cells; uninduced 293-COX-2 cells): no increase in apoptosis
- c-IAP-1 protein expression (c-IAP-1): No decrease in c-IAP-1 protein expression
- deaths / overt signs of toxicity [3]: None of the mice died or showed overt signs of toxicity
- NF-κB inhibitor potency on a molar basis (comparison) (NF-κB in HT-29 cells): more potent NF-κB inhibitor than rosiglitazone
